{
  "source": "patent US20150209327A1",
  "about": "“METHODS FOR THE TREATMENT OF OBESITY USING APREMILAST” (Celgene Corporation, priority 2014, published 2015)",
  "origin": "cited, not measured here",
  "conditions": "treatment of COPD; cited from earlier work",
  "data": [
    {"smiles": "O=C(Nc1c(Cl)cncc1Cl)c1ccc(OC(F)F)c(OCC2CC2)c1", "note": "[roflumilast]", "values": [
      {"measurement": "weight change as a side effect", "value": "Weight decrease was observed"}
    ]}
  ]
}
